Measurements taken from US20250129069A1, “TRIAZOLO WRN INHIBITORS” (Nimbus Wadjet, Inc., priority 2023, published 2025).
Where two headings read alike, the source gives them in different places.

Columns and labels:
[1] = test system: p21 induction in HCT 116 cells; assay: p21 induction in cells (In-Cell Western, p21/GAPDH ratio); assay type: cell-based; conditions: 24 h compound incubation, read-out: p21_EC50
Method: The colon carcinoma cell line HCT 116 was obtained from ATCC and cultured in growth medium consisting of Mccoy's 5A Medium (Gibco 16600108) supplemented with 10% FBS (Transgene FS201-02) and 100 units/mL penicillin-streptomycin (Gibco 15140122) and maintained at 37° C. under 5% CO2. On the day of seeding, 2,000 cells in 30 μL of culture media were plated per well to Poly-D-Lysine 384 Well Black Clear Plates (Biocoat 356663) and incubated overnight at 37° C. under 5% CO2. The following day, compounds were serially diluted in DMSO for a total of 11 test concentrations. The typical starting concentration of compounds was 10 μM with 2-fold dilutions. Next, 150 nL of diluted compound was added in duplicate to the assay plate, using an Echo 655 (Labcyte). The plate was centrifuged at 500 RPM for 1 min and then incubated at 37° C. under 5% CO2 for 24 h. After 24 h, medium was removed, and cells were fixed by adding 40 μL of 4% paraformaldehyde solution to each well and incubated for 20 min at room temperature. The plate was then washed 4 times with 100 μL per well of wash buffer (PBS with 0.1% Tween-20) using a microplate washer. Next, 30 μL of ice-cold methanol was added to each well and the plate was incubated at −20° C. for 10 min. The plate was washed 4 times with 100 μL per well of wash buffer by a microplate washer, then 30 μL per well of blocking buffer ((Intercept PBS blocking buffer (LI-COR 927-70001) with 0.05% Tween-20)) was added and the plate was incubated at room temperature with shaking for 2 h. Next, to each test well, 20 μL of primary antibody solution (p21 Wafl/CIP (12D1) RabbitmAb (Cell Signaling Technologies 2947) diluted 1:1000 and GAPDH (D4C6R) Mouse mAb (Cell Signaling Technologies 97166) diluted 1:2000 in blocking buffer) was added and the plate was placed at 4° C., overnight. The following day, the plate was washed 5 times with 100 μL per well of wash buffer using a microplate washer for 5 min. 20 μL per well of secondary antibody (IRDye 680CW Goat anti-Mouse IgG (H+L) (LI-COR 926-68070) diluted 1:2000 in Blocking Buffer and IRDye 800CW Goat anti-Rabbit IgG (H+L) (LI-COR 926-32211) diluted 1:2000 in Blocking Buffer) was then added and the plate was stored for 2 h in the dark at room temperature with shaking. The plate was then washed 4 times with 100 μL per well of wash buffer again using a microplate washer. Finally, the p21 signal and the GAPDH signal were quantified using a LI-COR Odyssey CLx Imager machine reading at 800 nm and 700 nm, respectively. Each plate contained DMSO control (low control) and an internal reference WRN inhibitor (high control) respectively. For quantitation, the 800 nm/700 nm ratio was calculated for each well to give fold p21 induction and then percent activation for each compound well was calculated as follows (100×(ratio cpd well-ratio low control)/(ratio high control−ratio low control). EC50 values for each compound was generated after non-linear regression curve fitting using commercially available software.

[2] = molecular target: human Werner helicase (WRN, amino acids 517-1235 with L1074F point mutation) (Homo sapiens (Human), UniProt Q14191, L1074F); assay: WRN (BV08) ADP-Glo assay; assay type: biochemical; conditions: human WRN (aa 517-1235, L1074F), read-out: ADP-Glo_hWRN_IC50
Sequence of human Werner helicase (WRN, amino acids 517-1235 with L1074F point mutation) (Q14191 other isoform, or with tags, fused parts or gaps L1074F (already in the parent)): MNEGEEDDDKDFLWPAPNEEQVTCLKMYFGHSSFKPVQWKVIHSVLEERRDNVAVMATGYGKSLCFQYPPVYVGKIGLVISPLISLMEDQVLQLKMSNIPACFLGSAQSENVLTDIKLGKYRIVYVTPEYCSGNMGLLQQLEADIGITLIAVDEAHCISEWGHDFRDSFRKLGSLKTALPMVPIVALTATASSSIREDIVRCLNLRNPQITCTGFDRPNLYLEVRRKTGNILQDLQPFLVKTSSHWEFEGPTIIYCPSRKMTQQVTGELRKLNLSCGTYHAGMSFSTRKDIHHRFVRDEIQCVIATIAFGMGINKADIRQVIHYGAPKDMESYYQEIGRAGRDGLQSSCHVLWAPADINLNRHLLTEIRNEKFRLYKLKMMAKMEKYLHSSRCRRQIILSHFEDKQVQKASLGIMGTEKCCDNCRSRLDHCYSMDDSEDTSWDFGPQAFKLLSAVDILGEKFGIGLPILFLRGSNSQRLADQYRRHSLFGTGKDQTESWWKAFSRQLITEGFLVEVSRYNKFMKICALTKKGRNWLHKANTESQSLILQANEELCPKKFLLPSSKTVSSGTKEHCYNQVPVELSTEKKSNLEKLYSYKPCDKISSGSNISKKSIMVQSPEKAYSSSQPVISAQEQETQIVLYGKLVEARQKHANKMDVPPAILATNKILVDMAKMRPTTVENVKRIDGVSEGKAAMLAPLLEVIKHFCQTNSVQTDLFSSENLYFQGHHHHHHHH
Description: Bovine skin gelatin (BSG), dimethyl sulfoxide (DMSO), Pluronic F-127 and tris(2-carboxyethyl)phosphine hydrochloride solution (TCEP) were purchased from Sigma-Aldrich (St. Louis, MO) at the highest level of purity possible. Bicine buffer solution was purchased from Alfa Aesar (Tewksbury, MA) and compound NSC-617145 was purchased from Tocris (Minneapolis, MN). DNA duplex was synthesized at BGI (Shenzhen, China) and was composed of strand 1 with the sequence 5′-[…]-3′ (SEQ ID NO.: 1) and strand 2 with the sequence 5′-[…]-3′ (SEQ ID NO.: 2). DNA strands were annealed by heating to 95° C. for 5 minutes followed by slow cooling to room temperature. Compounds in 100% DMSO (0.1 μl) were spotted into a 384-well white polystyrene Optiplate-384 (Perkin Elmer; Waltham, MA) assay plate using a LabCyte Echo 550 (Agilent; Santa Clara, CA). DMSO (0.1 μl) was added to columns 12, rows A-H and column 24, rows I-P for the maximum signal control. Compound NSC-617145 (0.1 μl) was added to columns 12, rows I-P and 24, rows A-H for the minimum signal control (100% inhibition). Compounds/DMSO were preincubated for 15 minutes at 25° C. with 5 μl 2×WRN (BV08), prepared as described below, in assay buffer containing 20 mM Bicine (pH=7.5), 1 mM MgCl2, 10 mM KCl, 0.1% Pluronic F-127, 0.005% BSG, 1 mM TCEP. The reaction was initiated by the addition of 5 μl 2× substrate mixture in assay buffer and incubated for 60 minutes at 25° C. The final concentrations of the assay components were 0.15 nM WRN, 5 μM ATP, and 0.1 nM DNA duplex. The final DMSO concentration was 1% and the reference compound concentration (NSC-617145) used for the minimal signal control was 20 μM. The reaction was stopped by the addition of the ADP-Glo Kit components (Promega; Madison, WI) as directed and the relative luminescence units (RLU) were read on an Envision 2104 (Perkin Elmer; Waltham, MA).
% inhibition calculation:
% INH=(RLU MAX−RLU sample)/(RLU MAX−RLU MIN))×100
Where RLU=relative luminescence units, sample=signal in sample well, and MIN and MAX are the respective minimum and maximum signal controls. Four-parameter IC50 fit equation:
Y=Bottom+(Top−Bottom)/(1+(IC50/X)^Hill Slope)
Where top and bottom are normally allowed to float but may be fixed at 100 or 0 respectively in a 3-parameter fit. Y is the % inhibition and X is the compound concentration.
Molecular Biology and virus production. The DNA encoding human Werner helicase (Uniprot Q14191, amino acids 517-1235 with L1074F point mutation) was generated with codon-optimization for E. coli expression and subcloned into the pFastBac vector with a TEV cleavable 8×His tag (WRN—BV08). The baculovirus from the expression plasmid WRN—BV08 was generated from transfection and amplification following the manufacturer's instructions.
Sf9 cells grown in SF900II media were infected with 1:200 WRN—BV08 P2 virus and incubated for protein expression for 72 h at 27° C. The WRN protein was purified using the following protocol. The cell pellets were thawed and resuspended in buffer A (50 mM Tris, pH 7.5, 500 mM NaCl, 1 mM TCEP, 10% Glycerol) supplemented with 0.5% CHAPS, 1 mM PMSF, […] Leupeptin, 1 μg/ml Pepstatin, and the Pierce Universal Nuclease and cocktail tablet. Cleared lysates were loaded onto a Ni Sepharose™ excel column and washed with buffer A and bound protein was eluted with buffer A supplemented with 300 mM imidazole. The eluted protein was dialyzed against buffer A and digested by His-tagged TEV (1:5 ratio) overnight at 4° C. ZnCl2 was added into the sample at final 15 μM before loading onto a second Ni Sepharose™ excel column. Untagged WRN protein was eluted from the column with buffer A supplemented with 20 mM imidazole, dialyzed overnight into buffer B (50 mM Tris, pH 7.5, 1 mM TCEP, 10% Glycerol) supplemented with 150 mM NaCl and loaded onto a Heparin column. Proteins were eluted with a step gradient of buffer B supplemented with 150 mM, 200 mM, 300 mM and 500 mM NaCl. […]

SMILES: CCc1c(N2CCN(C(=O)c3ncnc(C)c3O)[C@H](C)C2)c(=O)c2nn(-c3ccnc(OC)c3)nc2n1CC(=O)NC12CC(C3CC3)(C1)C2 [Compound I-178, N-{3-cyclopropylbicyclo[1.1.1]pentan-1-yl}-2-{5-ethyl-6-[(3R)-4-(5-hydroxy-6-methylpyrimidine-4-carbonyl)-3-methylpiperazin-1-yl]-2-(2-methoxypyridin-4-yl)-7-oxo-2H,4H,7H-[1,2,3]triazolo[4,5-b]pyridin-4-yl}acetamide]
- EC50 ([1]; Homo sapiens): 500 to 2000 nM
- IC50 [2]: 5 to 50 nM

SMILES: CCc1c(N2CCN(C(=O)c3[nH]ncc3OC)[C@H]3CC[C@@H]32)c(=O)c2nn(C3=CCOCC3)nc2n1CC(=O)NC12CC(C(C)C)(C1)C2 [Compound I-166, 2-[2-(3,6-dihydro-2H-pyran-4-yl)-5-ethyl-6-[(1S,6S)-5-(4-methoxy-1H-pyrazole-5-carbonyl)-2,5-diazabicyclo[4.2.0]octan-2-yl]-7-oxo-2H,4H,7H-[1,2,3]triazolo[4,5-b]pyridin-4-yl]-N-[3-(propan-2-yl)bicyclo[1.1.1]pentan-1-yl]acetamide]
- EC50 ([1]; Homo sapiens): 500 to 2000 nM
- IC50 [2]: 5 to 50 nM

SMILES: CCc1c(N2CCN(C(=O)c3c(OC)ncc(C)c3O)[C@H]3CC[C@@H]32)c(=O)c2nn(-c3ccnc(C)c3)nc2n1CC(=O)Nc1ccc(C(F)(F)F)cc1F [Compound I-95, 2-{5-ethyl-6-[(1S,6S)-5-(4-hydroxy-2-methoxy-5-methylpyridine-3-carbonyl)-2,5-diazabicyclo[4.2.0]octan-2-yl]-2-(2-methylpyridin-4-yl)-7-oxo-2H,4H,7H-[1,2,3]triazolo[4,5-b]pyridin-4-yl}-N-[2-fluoro-4-(trifluoromethyl)phenyl]acetamide]
- EC50 ([1]; Homo sapiens): ≤ 500 nM
- IC50 [2]: ≤ 5 nM

SMILES: CCc1c(N2CCN(C(=O)c3ncnc(C)c3O)CC2)c(=O)c2nn(-c3ccncc3)nc2n1CC(=O)NC12CC(C(C)C)(C1)C2 [Compound I-134, 2-{5-ethyl-6-[4-(5-hydroxy-6-methylpyrimidine-4-carbonyl)piperazin-1-yl]-7-oxo-2-(pyridin-4-yl)-2H,4H,7H-[1,2,3]triazolo[4,5-b]pyridin-4-yl}-N-[3-(propan-2-yl)bicyclo[1.1.1]pentan-1-yl]acetamide]
- EC50 ([1]; Homo sapiens): 500 to 2000 nM
- IC50 [2]: 5 to 50 nM

SMILES: CCc1c(N2CCN(C(=O)c3ncnc(C)c3O)[C@H]3CC[C@@H]32)c(=O)c2nn(-c3ccccn3)nc2n1CC(=O)NC12CC(C(C)C)(C1)C2 [Compound I-90, 2-{5-ethyl-6-[(1S,6S)-5-(5-hydroxy-6-methylpyrimidine-4-carbonyl)-2,5-diazabicyclo[4.2.0]octan-2-yl]-7-oxo-2-(pyridin-2-yl)-2H,4H,7H-[1,2,3]triazolo[4,5-b]pyridin-4-yl}-N-[3-(propan-2-yl)bicyclo[1.1.1]pentan-1-yl]acetamide]
- EC50 [1]: ≤ 500 nM
- IC50 [2]: 5 to 50 nM

SMILES: CCc1c(N2CCN(C(=O)c3ccccc3OC)[C@H]3CC[C@@H]32)c(=O)c2nn(C3=CCOCC3)nc2n1CC(=O)NC12CC(C(C)C)(C1)C2 [Compound I-53, 2-[2-(3,6-dihydro-2H-pyran-4-yl)-5-ethyl-6-[(1S,6S)-5-(2-methoxybenzoyl)-2,5-diazabicyclo[4.2.0]octan-2-yl]-7-oxo-2H,4H,7H-[1,2,3]triazolo[4,5-b]pyridin-4-yl]-N-[3-(propan-2-yl)bicyclo[1.1.1]pentan-1-yl]acetamide]
- EC50 ([1]; Homo sapiens): ≤ 500 nM
- IC50 [2]: 5 to 50 nM

SMILES: CCc1c(N2CCN(C(=O)c3ncnc(C)c3O)[C@H]3CC[C@@H]32)c(=O)c2nn(-c3ccc(OC)cc3)nc2n1CC(=O)NC12CC(C(C)C)(C1)C2 [Compound I-155, 2-{5-ethyl-6-[(1S,6S)-5-(5-hydroxy-6-methylpyrimidine-4-carbonyl)-2,5-diazabicyclo[4.2.0]octan-2-yl]-2-(4-methoxyphenyl)-7-oxo-2H,4H,7H-[1,2,3]triazolo[4,5-b]pyridin-4-yl}-N-[3-(propan-2-yl)bicyclo[1.1.1]pentan-1-yl]acetamide]
- EC50 ([1]; Homo sapiens): ≤ 500 nM
- IC50 [2]: ≤ 5 nM

SMILES: CCc1c(N2CCN(C(=O)c3ncnc(C)c3O)[C@H]3CC[C@@H]32)c(=O)c2nn(C3CC3)nc2n1CC(=O)NC12CC(C3CC3)(C1)C2 [Compound I-202, 2-{2-cyclopropyl-5-ethyl-6-[(1S,6S)-5-(5-hydroxy-6-methylpyrimidine-4-carbonyl)-2,5-diazabicyclo[4.2.0]octan-2-yl]-7-oxo-2H,4H,7H-[1,2,3]triazolo[4,5-b]pyridin-4-yl}-N-{3-cyclopropylbicyclo[1.1.1]pentan-1-yl}acetamide]
- EC50 ([1]; Homo sapiens): 500 to 2000 nM
- IC50 [2]: 5 to 50 nM

SMILES: CCc1c(N2CCN(C(=O)c3ncc4c(c3O)OCC4)CC2)c(=O)c2nn(C3=CCOCC3)nc2n1CC(=O)Nc1ccc(C(F)(F)F)cc1Cl [Compound I-109, N-[2-chloro-4-(trifluoromethyl)phenyl]-2-[2-(3,6-dihydro-2H-pyran-4-yl)-5-ethyl-6-(4-{7-hydroxy-2H,3H-furo[3,2-c]pyridine-6-carbonyl}piperazin-1-yl)-7-oxo-2H,4H,7H-[1,2,3]triazolo[4,5-b]pyridin-4-yl]acetamide]
- EC50 ([1]; Homo sapiens): ≤ 500 nM
- IC50 [2]: ≤ 5 nM
